Broadly, the IC50 is the point on the concentration scale where inhibition reaches its midpoint.

We go through four compounds from patent US20240122894A1, “METHODS TO SYNTHESIZE FLAVONOID DIMERS AND OLIGOMERS AND THE USE THEREOF” (National University of Singapore, priority 2020, published 2024).

The subject of one data set is α-glucosidase. In words: High-throughput starch hydrolase inhibition assay (turbidity, corn starch). It counts as biochemical. How it is done:
(§1) The inhibitory activity of each fraction obtained on α-amylase and α-glucosidase were determined using the turbidity measurement according to a reported method (Liu, Song, Wang, & Huang, 2011, Journal of agricultural and food chemistry 2011 Vol. 59 Issue 18 Pages 9756-9762). Corn starch (20 mg/mL) was suspended in sodium phosphate buffer (0.1 M, pH 6.9) and gelatinized at 100° C. for 2.5 min. The inhibitor solution was diluted in buffer to appropriate concentrations. Acarbose was used as a positive control and a reference standard. α-amylase solution (2 U/mL in buffer, 20 μL) or α-glucosidase solution (1×10−2 U/mL in buffer) was pre-incubated with inhibitor solution (20 μL) with series of concentrations in a 96-well microplate and kept at 37° C. for 15 min. The reaction was initiated by injecting 60 μL of the gelatinized corn starch solution. The turbidity changes were recorded at 660 nm every minute for 2 h using a Synergy HT microplate reader (Biotek Instruments Inc., Winooski, VT, USA). The inhibition percentage was calculated using Equation 10.
(§2) Inhibition (%)=(AUCsample−AUCcontrol)/AUCsample×100% (Equation 10)
(§3) Where AUCsample is the area under the inhibitory curve and AUCcontrol is the area under the curve negative control. The IC50 can be defined as the concentration of an inhibitor that produces 50% inhibition of enzyme activity under a specified assay condition. It was obtained from interpolation of percentage of inhibition against inhibitor concentration curve. In order to avoid run-to-run error due to fluctuation of enzymatic activity, the acarbose equivalent (AE) was used to express the inhibitory activity of sample based on the following equation:
(§4) AE of a sample=IC50 of acarbose/IC50 of a sample (Equation 11)

A further data set concerns the target T1, α-amylase (Sus scrofa, UniProt P00690).
T1 sequence (P00690 16-511): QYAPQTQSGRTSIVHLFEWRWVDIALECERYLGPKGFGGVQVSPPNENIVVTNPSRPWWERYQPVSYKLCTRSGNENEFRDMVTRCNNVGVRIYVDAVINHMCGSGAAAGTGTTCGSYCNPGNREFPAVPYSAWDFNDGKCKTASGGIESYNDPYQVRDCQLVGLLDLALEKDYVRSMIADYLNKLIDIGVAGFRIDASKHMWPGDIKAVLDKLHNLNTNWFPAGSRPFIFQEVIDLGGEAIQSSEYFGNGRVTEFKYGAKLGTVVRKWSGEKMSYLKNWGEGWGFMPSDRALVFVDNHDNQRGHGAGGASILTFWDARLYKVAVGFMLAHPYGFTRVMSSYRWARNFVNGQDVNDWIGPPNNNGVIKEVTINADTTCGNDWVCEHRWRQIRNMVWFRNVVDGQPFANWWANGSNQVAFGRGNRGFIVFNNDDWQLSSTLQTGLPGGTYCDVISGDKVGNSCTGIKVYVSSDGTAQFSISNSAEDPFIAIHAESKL
Described as above. It counts as biochemical. How it is done: as §1, §2, §3, §4

Another data set relates to blood glucose. In words: Glycemic response of mice after starch gavage. It counts as in vivo. The procedure:
A 10% (w/v) starch solution was prepared by addition of distilled water to reagent grade corn starch and heating the solution it in a boiling water bath for about 15 minutes until it was completely gelatinized. 8-week-old male wild-type C57BL/6J mice were fasted overnight (free water intake), and weighed the next day. The tail of the mice was trimmed and the blood was taken for measurement of fasting blood glucose concentration with a Roche blood glucose meter. Feeding method a, “YX2+Starch”: Luteolin dimer (2a) was gavaged as a 2 mg/mL water solution, at the dosage level of 20 mg/kg body weight of the animal. Thirty minutes later, the 10% (w/v) starch solution was gavaged at 1 g/kg body weight. Feeding method b, “Starch (+YX2)”: Luteolin dimer (2a) was mixed with starch at 0.2% ratio by dried weight and mixed with water (1:9 by weight) to give a slurry labelled as Starch (+YX2) (FIG. 41). The mixture was gavaged to mice at with 1 g/kg body weight. In comparison, luteolin (1a or YX1) was mixed with starch at 0.2% by weight. The resulting mixture was further mixed with water to give 10% starch slurry labelled as starch (+YX1) (FIG. 41). The mice were gavaged with 1 g/kg body weight. The blood glucose values were measured at 30, 60, 90, 120 minutes to make the blood glucose curve, GraphPad draws the blood glucose response curve after meal, and the area under the curve was calculated.

Data set [1] relates to Aspergillus niger ATCC 16888. The experiment in a line: Antifungal activity, radial growth technique on PDA medium. It counts as cell-based. The conditions noted are these: ATCC16888, read-out: IC50, inhibition of the growth of A. niger. The procedure:
The antifungal activity was evaluated against two fungi, Aspergillus niger ATCC 16888 and Botrytis cinerea ATCC 11542, isolated and identified with ITS gene (GenBank accession number AY373852, A. S. Taha et al., BioResources 2019, 14, 6025-6046). The bioassay was evaluated using the radial growth technique method (P. Wayne, Reference method for broth dilution antifungal susceptibility testing of yeasts, approved standard. CLSI document M27-A2, 2002). Both fungal strains were cultivated aerobically on PDA medium at 25° C. for 14 days. The fungal spores were collected with sterile cotton swabs and suspended in sterile water, and the concentrations were adjusted according to the requirements of the antifungal assays to be performed.
Flavonoids oligomers were dissolved in DMSO ([…]), then transferred into sterilized warm PDA medium (40 to 45° C.) to achieve a final concentration of 1.0 mg/mL, 0.6 mg/mL and 0.4 mg/mL, before immediately pouring into 24-well sterile plastic microtitration plates containing flat-bottomed wells (Corning Incorporated, costar). […]
From a 7-day-old colony, the fungus with discs of 9 mm diameter was transferred to the center of the treated PDA plates and controls. […] All the tested concentrations, as well as positive and negative controls, were measured in triplicate.

The conditions of data set [2]: literature (Electrochim. Acta 2013); cited from earlier work.
Data set [3] is described as follows: Solubility in water (observation). It counts as physicochemical. As to conditions: in water or slightly basic aqueous solution.
The nature of data set [4]: Determination of pKa values by 13C NMR spectroscopy under argon. It counts as physicochemical. The procedure: Luteolin (200 mg) was added in the three-necks round bottle flask fitted with a pH meter under argon (FIG. 12). Degassed water (20 mL) was added with stirring. To the solution, degassed aqueous KOH solution was injected through a syringe to adjust the pH. Aliquots (500 μL) of samples at a given pH value were transferred to 5 mm NMR tubes (Armar Chemicals, Switzerland). To the same NMR tube, deuterium oxide (D20, 5.0 μL) was added introduced for deuterium lock and a DMSO-d6 solution encapsulated in capillary tube (FIG. 12) was placed in the tube as the external standard for (at 2.50 ppm for CD3SOCD3, H. E. Gottlieb, V. Kotlyar & A. Nudelman, J. Org. Chem. 1997, 62, 7512-7515). The spectra were recorded and analyzed with MestReNova (Mestrelab research, version 5.2.5-4119). The resulting sigmoidal curve was subjected to nonlinear curve fitting using Prism® (GraphPad, version 5.0b and 5.0f). The dissociation constant pKa was calculated using the Henderson-Hasselback equation (Equation 1-4).
Where LH4, LH3^−, LH2^2−, LH^3− and L^4− are the species of luteolin in fully protonated form, first deprotonated, second deprotonated, third deprotonated 100% deprotonated form.
The chemical shift of the carbons in luteolin is dependent on the relative concentrations of the conjugate pair. For a solution at pH within pKa1 range, and the species in solution is ˜100% protonated (LH4), and the chemical shifts are that of the protonated species, δlow−1. For a solution at a higher pH the species in solution is first deprotonated (LH3^−), and the chemical shifts are that of the deprotonated species, δhigh−1.
Equation 7-8 were applied to determine the mole fraction of conjugate pair from chemical shift of a specific carbon. The assignment of ^13C NMR of luteolin was further confirmed by HSQC and HMBC methods with 2D correlation with ^1H NMR.

The mark [5] stands for this setting: 0.2% mixture of compound in starch, gavaged at 1 g/kg body weight.

On to `O=c1cc(-c2ccc(O)c(O)c2-c2c(O)cc3oc(-c4ccc(O)c(O)c4)cc(=O)c3c2O)oc2cc(O)cc(O)c12` [Compound 2a, 6-(6-(5,7-dihydroxy-4-oxo-4H-chromen-2-yl)-2,3-dihydroxyphenyl)-2-(3,4-dihydroxyphenyl)-5,7-dihydroxy-4H-chromen-4-one], for which the “activity in inhibiting α-glucosidase compared with acarbose” value with α-glucosidase is listed as “comparable”. For the same compound, the “activity in inhibiting α-amylase compared with acarbose” value on α-amylase is “comparable”. Also, the glycemic response entry with blood glucose (20 mg/kg by gavage 30 minutes before starch at 1 g/kg body weight (curve YX2+starch)) is “no glycemic response”; in the data set on blood glucose (setting [5]), “comparable to that of the mice fed only with same dose of starch”; in the data set with blood glucose (mice fed only with compound at 20 mg/kg body weight, no starch), “did not lead to glycemic response”. Moreover, the half-inhibitory concentration (IC50) in data set [1] was 0.86 µM.

On to `O=c1cc(-c2ccc(O)c(O)c2-c2c(O)cc3oc(-c4ccc(O)c(O)c4-c4c(O)cc5oc(-c6ccc(O)c(O)c6)cc(=O)c5c4O)cc(=O)c3c2O)oc2cc(O)cc(O)c12` [Compound 3a, 6-(6-(5,7-dihydroxy-4-oxo-4H-chromen-2-yl)-2,3-dihydroxyphenyl)-2-(2-(2-(3,4-dihydroxyphenyl)-5,7-dihydroxy-4-oxo-4H-chromen-6-yl)-3,4-dihydroxyphenyl)-5,7-dihydroxy-4H-chromen-4-one], for which, in data set [1], the IC50 amounted to 0.96 µM.

Take `O=c1cc(-c2ccc(O)c(O)c2)oc2cc(O)cc(O)c12` [luteolin]: the “activity in inhibiting α-amylase compared with acarbose” value at α-amylase is given as “no activity”. For the same compound, the “pKa1, literature values” in data set [2] is given as ~6.0. In data set [3], the solubility entry is listed as “poor solubility”. The glycemic response entry in the data set on blood glucose (setting [5]) is given as “almost the same as that of the mice fed only with same dosage of starch”. The pKa3 in data set [4] (C(3′)-OH) worked out at 12.78. Moreover, the pKa2 in data set [4] (C(4′)-OH) came out at 8.93. This compound also came in with a pKa4 in data set [4] (C(5)-OH) of 13.03. The pKa1 in data set [4] (C(7)-OH, first deprotonation) was determined as 8.00.

Consider `O=c1cc(-c2ccc(O)c(O)c2-c2c(O)cc3oc(-c4ccc(O)cc4)cc(=O)c3c2O)oc2cc(O)cc(O)c12` [Compound 2b, 6-(6-(5,7-dihydroxy-4-oxo-4H-chromen-2-yl)-2,3-dihydroxyphenyl)-5,7-dihydroxy-2-(4-hydroxyphenyl)-4H-chromen-4-one], for which, in the data set with α-glucosidase, the “activity in inhibiting α-glucosidase compared with acarbose” value is reported as “even higher”. In addition, the “activity in inhibiting α-amylase compared with acarbose” value at α-amylase is given as “even higher”.
